{"source": "patent US4100346A", "about": "“Certain 7(o-amino-methyl- or methylaminomethylphenyl- or cyclohexadienyl- or thienylacetamide)-3[1-carboxymethyl-(or ethyl- or propyl-)-tetrazol-5-ylthiomethyl]-3-cephem-4-carboxylic acids” (Bristol-Myers Company, priority 1976, dated 1978)", "key": {"[1]": {"system": "Mycobacterium tuberculosis", "assay_type": "cell-based"}, "E. cloacae": {"system": "E. cloacae", "assay": "MIC by Tube Dilution Technique in Nutrient Broth (Example 9 table)", "assay_type": "cell-based", "conditions": "Enterobacter cloacae; El-1 E. cloacae A9656", "text": "(§1) MIC (mcg./ml.) by Tube Dilution Technique in Nutrient Broth."}, "S. marcescens": {"system": "S. marcescens", "assay": "MIC by Tube Dilution Technique in Nutrient Broth (Example 9 table)", "assay_type": "cell-based", "conditions": "Serratia marcescens; Sm-1 S. marcescens A20019", "text": "as §1"}, "P. aeruginosa": {"system": "P. aeruginosa", "assay": "MIC by Tube Dilution Technique in Nutrient Broth (Example 9 table)", "assay_type": "cell-based", "conditions": "Pseudomonas aeruginosa; P. aeruginosa A9843", "text": "as §1"}, "P. morganii": {"system": "P. morganii", "assay": "MIC by Tube Dilution Technique in Nutrient Broth (Example 9 table)", "assay_type": "cell-based", "conditions": "Morganella morganii; Pg-8 P. morganii A15153", "text": "as §1"}, "S. enteritidis": {"system": "S. enteritidis", "assay": "MIC by Tube Dilution Technique in Nutrient Broth (Example 9 table)", "assay_type": "cell-based", "conditions": "Salmonella enterica; Se-1 S. enteritidis A9531", "text": "as §1"}, "E. coli [2]": {"system": "E. coli", "assay": "MIC by Tube Dilution Technique in Nutrient Broth (Example 9 table)", "assay_type": "cell-based", "conditions": "Escherichia coli", "text": "as §1"}, "P. mirabilis": {"system": "P. mirabilis", "assay": "MIC by Tube Dilution Technique in Nutrient Broth (Example 9 table)", "assay_type": "cell-based", "conditions": "Proteus mirabilis; Pm-2 P. mirabilis A9900", "text": "as §1"}, "S. aureus [3]": {"system": "S. aureus", "assay": "MIC by Tube Dilution Technique in Nutrient Broth (Example 9 table)", "assay_type": "cell-based", "conditions": "Staphylococcus aureus", "text": "as §1"}, "K. pneumoniae [4]": {"system": "K. pneumoniae", "assay": "MIC by Tube Dilution Technique in Nutrient Broth (Example 9 table)", "assay_type": "cell-based", "conditions": "Klebsiella pneumoniae", "text": "as §1"}, "S. pyogenes": {"system": "S. pyogenes", "assay": "Growth inhibitory activity, antibiotic dilution technique", "conditions": "Streptococcus pyogenes, read-out: concentration inhibiting all strains"}, "Str. pneumoniae": {"system": "Str. pneumoniae", "assay": "M.I.C. by Tube Dilution in Nutrient Broth (Examples 1 and 2)", "assay_type": "cell-based", "conditions": "Streptococcus pneumoniae; Str. pneumoniae A9585 (10^-3 dilution of overnight broth culture); 45% Antibiotic Assay Broth + 50% Nutrient Broth + 5% serum", "text": "(§2) *45% Antibiotic Assay Broth + 50% Nutrient Broth + 5% serum\n(§3) **Dilution of overnight broth culture"}, "Str. pyogenes": {"system": "Str. pyogenes", "assay": "M.I.C. by Tube Dilution in Nutrient Broth (Examples 1 and 2)", "assay_type": "cell-based", "conditions": "Streptococcus pyogenes; Str. pyogenes A9604 (10^-3); 45% Antibiotic Assay Broth + 50% Nutrient Broth + 5% serum", "text": "as §2, §3"}, "[5]": {"assay": "Stability in solution, 0.005 M phosphate buffer pH 7.4, 37° C.", "assay_type": "physicochemical", "conditions": "pH 7.4 and 37° C.", "experimental": "Stability in Solution. Stability in solution was determined at 37° C. in 0.005 M phosphate buffer of pH 7.4. […] Residual antibiotic activity was determined periodically over a 24-hour period by a turbidimetric assay procedure or by an antibiotic diffusion technique (cephalothin)."}, "Sal. enteritidis": {"system": "Sal. enteritidis", "assay": "M.I.C. by Tube Dilution in Nutrient Broth (Examples 1 and 2)", "assay_type": "cell-based", "conditions": "Salmonella enterica; Sal. enteritidis A9531 (10 ^4)", "text": "(§4) | **Dilution of overnight broth culture"}, "Ps. aeruginosa": {"system": "Ps. aeruginosa", "assay": "M.I.C. by Tube Dilution in Nutrient Broth (Examples 1 and 2)", "assay_type": "cell-based", "conditions": "Pseudomonas aeruginosa", "text": "as §4"}, "E. coli [6]": {"system": "E. coli", "assay": "M.I.C. by Tube Dilution in Nutrient Broth (Examples 1 and 2)", "assay_type": "cell-based", "conditions": "Escherichia coli, E. coli A9675 (10^-4)", "text": "as §4"}, "Ent. cloacae": {"system": "Ent. cloacae", "assay": "M.I.C. by Tube Dilution in Nutrient Broth (Examples 1 and 2)", "assay_type": "cell-based", "conditions": "Enterobacter cloacae", "text": "as §4"}, "S. aureus [7]": {"system": "S. aureus", "assay": "M.I.C. by Tube Dilution in Nutrient Broth (Examples 1 and 2)", "assay_type": "cell-based", "conditions": "Staphylococcus aureus", "text": "as §4"}, "Ser. marcescens": {"system": "Ser. marcescens", "assay": "M.I.C. by Tube Dilution in Nutrient Broth (Examples 1 and 2)", "assay_type": "cell-based", "conditions": "Serratia marcescens; Ser. marcescens A20019 (10^-4)", "text": "as §4"}, "Pr. mirabilis": {"system": "Pr. mirabilis", "assay": "M.I.C. by Tube Dilution in Nutrient Broth (Examples 1 and 2)", "assay_type": "cell-based", "conditions": "Proteus mirabilis; Pr. mirabilis A9900 (10^-4)", "text": "as §4"}, "Pr. morganii": {"system": "Pr. morganii", "assay": "M.I.C. by Tube Dilution in Nutrient Broth (Examples 1 and 2)", "assay_type": "cell-based", "conditions": "Morganella morganii; Pr. morganii A15153 (10^-4)", "text": "as §4"}, "K. pneumoniae [8]": {"system": "K. pneumoniae", "assay": "M.I.C. by Tube Dilution in Nutrient Broth (Examples 1 and 2)", "assay_type": "cell-based", "conditions": "Klebsiella pneumoniae", "text": "as §4"}, "S. aureus [9]": {"system": "S. aureus", "assay": "Growth inhibitory activity, antibiotic dilution technique", "conditions": "63 strains tested"}, "S. viridans": {"system": "S. viridans", "assay": "Growth inhibitory activity, antibiotic dilution technique", "conditions": "Streptococcus viridans, read-out: concentration inhibiting all strains"}, "Streptococcus faecalis": {"system": "Streptococcus faecalis", "assay": "Growth inhibitory activity, antibiotic dilution technique"}, "[10]": {"assay": "Solubility in water, buffer or urine", "conditions": "soluble as Na^+ salt, as Na^+ salt"}}}
{"smiles": "NCc1ccccc1CC(=O)N[C@@H]1C(=O)N2C(C(=O)O)=C(CSc3nnnn3CC(=O)O)CS[C@H]12", "note": "[Example 1]", "values": [{"measurement": "times more active than the control compounds", "setting": "[1]", "result": "4 to 32"}, {"measurement": "MIC", "setting": "E. cloacae", "result": 50, "unit": "µg/mL"}, {"measurement": "MIC", "setting": "S. marcescens", "result": "> 100", "unit": "µg/mL"}, {"measurement": "MIC", "setting": "P. aeruginosa", "result": "> 100", "unit": "µg/mL"}, {"measurement": "MIC", "setting": "P. morganii", "result": 6.3, "unit": "µg/mL"}, {"measurement": "MIC", "setting": "S. enteritidis", "result": 0.2, "unit": "µg/mL"}, {"measurement": "MIC", "setting": "E. coli [2]; Ec-1 E. coli NIHJ", "result": 0.8, "unit": "µg/mL"}, {"measurement": "MIC", "setting": "E. coli [2]; Ec-3 E. coli Juhl A15119", "result": 0.8, "unit": "µg/mL"}, {"measurement": "MIC", "setting": "E. coli [2]; Ec-58 E. coli A9675", "result": 6.3, "unit": "µg/mL"}, {"measurement": "MIC", "setting": "P. mirabilis", "result": 0.4, "unit": "µg/mL"}, {"measurement": "MIC", "setting": "S. aureus [3]; Sa-2 S. aureus +50% serum", "result": "> 3.1", "unit": "µg/mL"}, {"measurement": "MIC", "setting": "S. aureus [3]; Sa-2 S. aureus Smith A9537", "result": 3.1, "unit": "µg/mL"}, {"measurement": "MIC", "setting": "S. aureus [3]; Sa-11 S. aureus BX-1633 A9606", "result": 3.1, "unit": "µg/mL"}, {"measurement": "MIC", "setting": "S. aureus [3]; Sa-44 S. aureus A15097", "result": 6.3, "unit": "µg/mL"}, {"measurement": "MIC", "setting": "K. pneumoniae [4]; Kp-3 K. pneumoniae A9977", "result": 0.2, "unit": "µg/mL"}, {"measurement": "MIC", "setting": "K. pneumoniae [4]; Kp-4 K. pneumoniae A15130", "result": 1.6, "unit": "µg/mL"}, {"measurement": "MIC", "setting": "S. pyogenes", "result": 0.5, "unit": "µg/mL"}, {"measurement": "MIC", "setting": "Str. pneumoniae", "result": 0.13, "unit": "µg/mL"}, {"measurement": "MIC", "setting": "Str. pyogenes", "result": 0.13, "unit": "µg/mL"}, {"measurement": "half-life", "setting": "[5]", "result": "> 24", "unit": "h"}, {"measurement": "MIC", "setting": "Sal. enteritidis", "result": 0.06, "unit": "µg/mL"}, {"measurement": "MIC", "setting": "Ps. aeruginosa", "result": "> 125", "unit": "µg/mL"}, {"measurement": "MIC", "setting": "E. coli [6]", "result": 16, "unit": "µg/mL"}, {"measurement": "MIC", "setting": "Ent. cloacae; Ent. cloacae A9657 (10^-4)", "result": 0.25, "unit": "µg/mL"}, {"measurement": "MIC", "setting": "Ent. cloacae; Ent. cloacae A9659 (10^-4)", "result": 32, "unit": "µg/mL"}, {"measurement": "MIC", "setting": "Ent. cloacae; Ent. cloacae A9656 (10^-4)", "result": "> 125", "unit": "µg/mL"}, {"measurement": "MIC", "setting": "S. aureus [7]; S. aureus BX1633 A9606 (10^-2)", "result": 2, "unit": "µg/mL"}, {"measurement": "MIC", "setting": "S. aureus [7]; S. aureus BX1633 A9606 (10^-3)", "result": 1, "unit": "µg/mL"}, {"measurement": "MIC", "setting": "S. aureus [7]; S. aureus Meth-Res A15097 (10^-3)", "result": 4, "unit": "µg/mL"}, {"measurement": "MIC", "setting": "S. aureus [7]; S. aureus Smith A9537 (10^-4)", "result": 1, "unit": "µg/mL"}, {"measurement": "MIC", "setting": "S. aureus [7]; S. aureus-50% serum A9537 (10^-4)", "result": 4, "unit": "µg/mL"}, {"measurement": "MIC", "setting": "Ser. marcescens", "result": 125, "unit": "µg/mL"}, {"measurement": "MIC", "setting": "Pr. mirabilis", "result": 0.13, "unit": "µg/mL"}, {"measurement": "MIC", "setting": "Pr. morganii", "result": 32, "unit": "µg/mL"}, {"measurement": "MIC", "setting": "K. pneumoniae [8]; K. pneumoniae A9977 (10^-4)", "result": 0.13, "unit": "µg/mL"}, {"measurement": "MIC", "setting": "K. pneumoniae [8]; K. pneumoniae A15130 (10^-4)", "result": 2, "unit": "µg/mL"}, {"measurement": "number of strains of S. aureus inhibited", "setting": "S. aureus [9]; at 4 mcg./ml.", "result": 62, "unit": "strains"}, {"measurement": "number of strains of S. aureus inhibited", "setting": "S. aureus [9]; at 8 mcg./ml.", "result": 63, "unit": "strains"}, {"measurement": "MIC", "setting": "S. viridans", "result": 4, "unit": "µg/mL"}, {"measurement": "susceptibility of Streptococcus faecalis", "setting": "Streptococcus faecalis", "result": "resistant"}, {"measurement": "solubility", "setting": "[10]", "result": "≥ 250", "unit": "mg/mL"}]}
